The values that follow come from US11230540B2, “Substituted triazole derivatives and uses thereof” (Bayer Pharma Aktiengesellschaft, priority 2017, dated 2022).

SMILES strings stand for the structures.

Test [1] concerns the target T1, human V2 receptor (Homo sapiens, UniProt P30518).
T1 construct: expressed in transfected cells; host or cells: CHO K1 (Chinese hamster ovary) expressing firefly luciferase under a CRE-responsive promoter
Put plainly: Cellular in vitro assay for vasopressin receptor activity, V2 receptor cell line (CRE-luciferase). It counts as cell-based. As to conditions: CHO cell line transfected with human V2 receptor; [Arg8]-vasopressin at EC50 concentration; read-out: IC50 hV2. The procedure:
(§1) B-1. Cellular In Vitro Assay for Determining Vasopressin Receptor Activity
(§2) The identification of agonists and antagonists of the V1a and V2 vasopressin receptors from humans, rats and dogs as well as the quantification of the activity of the compounds of the invention is carried out using recombinant cell lines. These cell lines originally derive from a hamster's ovary epithelial cell (Chinese Hamster Ovary, CHO K1, ATCC: American Type Culture Collection, Manassas, Va. 20108, USA). The test cell lines constitutively express the human, rat or dog V1a or V2 receptors. In case of the […] V1a receptors, cells are also stably transfected with a modified form of the calcium-sensitive photoproteins aequorin (human and rat V1a) or obelin (dog V1a), which, after reconstitution with the cofactor coelenterazine, emit light when there are increases in free calcium concentrations [Rizzuto R, Simpson A W, Brini M, Pozzan T, Nature 358, 325-327 (1992); Illarionov B A, Bondar V S, Illarionova V A, Vysotski E S, Gene 153 (2), 273-274 (1995)]. The resulting vasopressin receptor cells react to stimulation of the recombinantly expressed V1a receptors by intracellular release of calcium ions, which can be quantified by the resulting photoprotein luminescence. The Gs-coupled V2 receptors are stably transfected into cell lines expressing the gene for firefly luciferase under control of a CRE-responsible promoter. Activation of V2 receptors induces the activation of the CRE-responsive promoter via cAMP increase, thereby inducing the expression of firefly luciferase. The light emitted by photoproteins of V1a cell lines as well as the light emitted by firefly luciferase of V2 cell lines corresponds to the activation or inhibition of the respective vasopressin receptor. The bioluminescence of the cell lines is detected using a suitable luminometer [Milligan G, Marshall F, Rees S, Trends in Pharmacological Sciences 17, 235-237 (1996)].
Vasopressin V2 Receptor Cell Lines:
On the day before the assay, the cells are plated out in culture medium (DMEM/F12, 2% FCS, 2 mM glutamine, 10 mM HEPES) in 384-well microtiter plates and kept in a cell incubator (96% humidity, 5% v/v CO2, 37° C.). On the day of the assay, test compounds in various concentrations and the agonist [Arg^8]-vasopressin at EC50 concentration are added together to the wells, and plates are incubated for 3 hours in a cell incubator. Upon addition of the cell lysis reagent Triton™ and the substrate luciferin, luminescence of firefly luciferase is measured in a luminometer.
(§3) Table 1A below lists individual IC50 values for the compounds of the invention (including racemic mixtures as well as separated enantiomers) that were obtained from cell lines transfected with the human V1a or V2 receptor: […]

Test [2] deals with T2, human V1a receptor (Homo sapiens, UniProt P37288).
T2 construct: expressed in transfected cells; host or cells: CHO K1 (Chinese hamster ovary), also stably transfected with a modified aequorin
T2 sequence (P37288 whole entry): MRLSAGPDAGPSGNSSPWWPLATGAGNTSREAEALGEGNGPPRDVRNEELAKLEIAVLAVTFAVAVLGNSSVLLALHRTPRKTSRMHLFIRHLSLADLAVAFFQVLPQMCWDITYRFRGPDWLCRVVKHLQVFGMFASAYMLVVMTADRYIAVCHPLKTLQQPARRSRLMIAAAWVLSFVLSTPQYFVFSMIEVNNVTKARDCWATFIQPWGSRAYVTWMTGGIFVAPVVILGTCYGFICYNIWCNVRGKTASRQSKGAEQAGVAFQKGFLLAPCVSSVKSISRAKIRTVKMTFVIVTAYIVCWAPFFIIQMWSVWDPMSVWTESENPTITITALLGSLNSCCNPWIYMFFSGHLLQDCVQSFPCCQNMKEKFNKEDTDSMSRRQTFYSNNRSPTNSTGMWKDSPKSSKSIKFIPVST
As to the kind of experiment: Cellular in vitro assay for vasopressin receptor activity, V1a receptor cell line (aequorin luminescence). It counts as cell-based. As to conditions: for IC50: CHO cell line transfected with human V1a receptor, [Arg8]-vasopressin at EC50 concentration, read-out: IC50 hV1a; for ratio IC50 hV2/hV1a: selectivity ratio of the IC50 values hV2/hV1a. The procedure: as §1, §2
Vasopressin V1a Receptor Cell Lines:
On the day before the assay, the cells are plated out in culture medium (DMEM/F12, 2% FCS, 2 mM glutamine, 10 mM HEPES, 5 μg/ml coelenterazine) in 384-well microtiter plates and kept in a cell incubator (96% humidity, 5% v/v CO2, 37° C.). On the day of the assay, test compounds in various concentrations are placed for 10 minutes in the wells of the microtiter plate before the agonist [Arg^8]-vasopressin at EC50 concentration is added. The resulting light signal is measured immediately in a luminometer.
as §3

T1 sequence (P30518 whole entry): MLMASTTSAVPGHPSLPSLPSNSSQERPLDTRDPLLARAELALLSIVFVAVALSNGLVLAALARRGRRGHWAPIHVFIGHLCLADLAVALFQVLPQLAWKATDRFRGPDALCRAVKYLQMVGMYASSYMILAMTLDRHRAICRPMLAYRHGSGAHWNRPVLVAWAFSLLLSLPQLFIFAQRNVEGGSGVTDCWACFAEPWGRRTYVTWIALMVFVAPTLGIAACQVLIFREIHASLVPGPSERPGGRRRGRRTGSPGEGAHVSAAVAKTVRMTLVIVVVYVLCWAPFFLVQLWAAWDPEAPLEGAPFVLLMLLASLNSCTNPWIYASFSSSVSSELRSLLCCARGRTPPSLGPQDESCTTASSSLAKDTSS

One may read the IC50 as the concentration at which inhibition is half-maximal. Take `CC(C)(O)CNC(=O)c1nc(Cn2nc(-c3ccc(Cl)cc3)n(C[C@H](O)C(F)(F)F)c2=O)nn1-c1ncccc1OC(F)(F)F` [Example 1, 3-({3-(4-Chlorophenyl)-5-oxo-4-[(2S)-3,3,3-trifluoro-2-hydroxypropyl]-4,5-dihydro-1H-1,2,4-triazol-1-yl}methyl)-N-(2-hydroxy-2-methylpropyl)-1-[3-(trifluoromethoxy)pyridin-2-yl]-1H1,2,4-triazole-5-carboxamide]: the IC50 in test [1] was determined as 82 nM; in test [2], 0.66 nM. Also, the “ratio IC50 hV2/hV1a” value in test [2] turned out to be 124.2.

For `CC(C)(O)CNC(=O)c1nc(Cn2nc(-c3ccc(Cl)cc3)n(C[C@H](O)C(F)(F)F)c2=O)nn1-c1cnccc1Cl` [Example 2, 3-({3-(4-Chlorophenyl)-5-oxo-4-[(2S)-3,3,3-trifluoro-2-hydroxypropyl]-4,5-dihydro-1H-1,2,4-triazol-1-yl}methyl)-1-(4-chloropyridin-3-yl)-N-(2-hydroxy-2-methylpropyl)-1H-1,2,4-triazole-5-carboxamide], the 50% inhibitory concentration (IC50) came to 23 nM in test [1] and 0.45 nM in test [2]. For the same compound, the “ratio IC50 hV2/hV1a” value in test [2] was 51.7.

With `CC(C)(N)CNC(=O)c1nc(Cn2nc(-c3ccc(Cl)cc3)n(C[C@H](O)C(F)(F)F)c2=O)nn1-c1ncccc1OC(F)(F)F` [Example 3, N-(2-Amino-2-methylpropyl)-3-({3-(4-chlorophenyl)-5-oxo-4-[(2S)-3,3,3-trifluoro-2-hydroxypropyl]-4,5-dihydro-1H-1,2,4-triazol-1-yl}methyl)-1-[3-(trifluoromethoxy)pyridin-2-yl]-1H-1,2,4-triazole-5-carboxamide], the IC50 in test [1] was 470 nM. In test [2], the concentration for half-maximal inhibition (IC50) was determined as 0.83 nM and the “ratio IC50 hV2/hV1a” value is given as 569.7.

As to `CC(C)(N)CNC(=O)c1nc(Cn2nc(-c3ccc(Cl)cc3)n(C[C@H](O)C(F)(F)F)c2=O)nn1-c1cnccc1Cl` [Example 4, N-(2-Amino-2-methylpropyl)-3-({3-(4-chlorophenyl)-5-oxo-4-[(2S)-3,3,3-trifluoro-2-hydroxypropyl]-4,5-dihydro-1H-1,2,4-triazol-1-yl}methyl)-1-(4-chloropyridin-3-yl)-1H-1,2,4-triazole-5-carboxamide], the IC50 in test [1] worked out at 410 nM. Further, in test [2], the IC50 turned out to be 0.49 nM and the “ratio IC50 hV2/hV1a” value amounted to 845.4.

Take `CC1(O)CCN(C(=O)c2nc(Cn3nc(-c4ccc(Cl)cc4)n(C[C@H](O)C(F)(F)F)c3=O)nn2-c2ncccc2OC(F)(F)F)C1` (stereo partly drawn) [Example 5, 5-(4-Chlorophenyl)-2-[(5-[{3-hydroxy-3-methylpyrrolidin-1-yl]carbonyl}-1-[3-(trifluoromethoxy)pyridin-2-yl]-1H-1,2,4-triazol-3-yl)methyl]-4[(2S)-3,3,3-trifluoro-2-hydroxypropyl]-2,4-dihydro-3H-1,2,4-triazol-3-one]: the 50% inhibitory concentration (IC50) in test [1] turned out to be 1130 nM. Besides, in test [2], the IC50 amounted to 10.3 nM and the “ratio IC50 hV2/hV1a” value came to 108.7.

Regarding `CC1(O)CCN(C(=O)c2nc(Cn3nc(-c4ccc(Cl)cc4)n(C[C@H](O)C(F)(F)F)c3=O)nn2-c2cnccc2Cl)C1` (some centres unmarked) [Example 6], the IC50 in test [1] came out at 360 nM. In test [2], the IC50 was determined as 2.45 nM and the “ratio IC50 hV2/hV1a” value turned out to be 146.9.

As for `CC1(CNC(=O)c2nc(Cn3nc(-c4ccc(Cl)cc4)n(C[C@H](O)C(F)(F)F)c3=O)nn2-c2ncccc2OC(F)(F)F)COC1` [Example 7, 3-({3-(4-Chlorophenyl)-5-oxo-4-[(2S)-3,3,3-trifluoro-2-hydroxypropyl]-4,5-dihydro-1H-1,2,4-triazol-1-yl}methyl)-N-[(3-methyloxetan-3-yl)methyl]-1-[3-(trifluoromethoxy)pyridin-2-yl]-1H1,2,4-triazole-5-carboxamide], the IC50 in test [1] worked out at 335 nM. Further, in test [2], the 50% inhibitory concentration (IC50) worked out at 2.55 nM and the “ratio IC50 hV2/hV1a” value was 131.4.

As for `CC1(CNC(=O)c2nc(Cn3nc(-c4ccc(Cl)cc4)n(C[C@H](O)C(F)(F)F)c3=O)nn2-c2cnccc2Cl)COC1` [Example 8, 3-({3-(4-Chlorophenyl)-5-oxo-4-[(2S)-3,3,3-trifluoro-2-hydroxypropyl]-4,5-dihydro-1H-1,2,4-triazol-1-yl}methyl)-1-(4-chloropyridin-3-yl)-N-[(3-methyloxetan-3-yl)methyl]-1H-1,2,4-triazole-5-carboxamide], in test [1], the half-inhibitory concentration (IC50) was 98.5 nM. In test [2], the concentration for half-maximal inhibition (IC50) turned out to be 0.68 nM and the “ratio IC50 hV2/hV1a” value turned out to be 144.9.

For `NNC(=O)c1nc(Cn2nc(-c3ccc(Cl)cc3)n(C[C@H](O)C(F)(F)F)c2=O)nn1-c1cnccc1Cl` [Example 9, 3-({3-(4-Chlorophenyl)-5-oxo-4-[(2S)-3,3,3-trifluoro-2-hydroxypropyl]-4,5-dihydro-1H-1,2,4-triazol-1-yl}methyl)-1-(4-chloropyridin-3-yl)-1H-1,2,4-triazole-5-carbohydrazide], the IC50 in test [1] was determined as 148 nM. In addition, in test [2], the IC50 stood at 2.9 nM and the “ratio IC50 hV2/hV1a” value is 51.1.

On to `NNC(=O)c1nc(Cn2nc(-c3ccc(Cl)cc3)n(C[C@H](O)C(F)(F)F)c2=O)nn1-c1ncccc1Cl` [Example 10, 3-({3-(4-Chlorophenyl)-5-oxo-4-[(2S)-3,3,3-trifluoro-2-hydroxypropyl]-4,5-dihydro-1H-1,2,4-triazol-1-yl}methyl)-1-(3-chloropyridin-2-yl)-1H-1,2,4-triazole-5-carbohydrazide], for which the values for the IC50 in test [1] and in test [2] were 94.5 nM and 2.15 nM, respectively. In test [2], the “ratio IC50 hV2/hV1a” value was found to be 44.0.

As for `NNC(=O)c1nc(Cn2nc(-c3ccc(Cl)cc3)n(C[C@H](O)C(F)(F)F)c2=O)nn1-c1ncccc1OC(F)(F)F` [Example 11, 3-({3-(4-Chlorophenyl)-5-oxo-4-[(2S)-3,3,3-trifluoro-2-hydroxypropyl]-4,5-dihydro-1H-1,2,4-triazol-1-yl}methyl)-1-[3-(trifluoromethoxy)pyridin-2-yl]-1H-1,2,4-triazole-5-carbohydrazide], the IC50 was 1640 nM in test [1] and 9.1 nM in test [2]. In addition, in test [2], the “ratio IC50 hV2/hV1a” value was 180.2.

For the compound `O=C(c1nc(Cn2nc(-c3ccc(Cl)cc3)n(C[C@H](O)C(F)(F)F)c2=O)nn1-c1ccccc1Cl)N1CC(O)(C(F)(F)F)C1` [Example 12, 5-(4-Chlorophenyl)-2-{[1-(2-chlorophenyl)-5-{[3-hydroxy-3-(trifluoromethyl)azetidin-1-yl]carbonyl}-1H-1,2,4-triazol-3-yl]methyl}-4-[(2S)-3,3,3-trifluoro-2-hydroxypropyl]-2,4-dihydro-3H-1,2,4-triazol-3-one], the 50% inhibitory concentration (IC50) in test [1] amounted to 22.2 nM. In addition, in test [2], the IC50 came out at 1.19 nM and the “ratio IC50 hV2/hV1a” value was found to be 18.7.

In the case of `CC(C)(O)CNC(=O)c1nc(Cn2nc(-c3ccc(Cl)cc3)n(C[C@H](O)C(F)(F)F)c2=O)nn1-c1cccnc1Cl` [Example 15, 3-({3-(4-Chlorophenyl)-5-oxo-4-[(2S)-3,3,3-trifluoro-2-hydroxypropyl]-4,5-dihydro-1H-1,2,4-triazol-1-yl}methyl)-1-(2-chloropyridin-3-yl)-N-(2-hydroxy-2-methylpropyl)-1H-1,2,4-triazole-5-carboxamide], the half-inhibitory concentration (IC50) stood at 183 nM in test [1] and 13 nM in test [2].

With `O=C(NCC(F)(F)F)c1nc(Cn2nc(-c3ccc(Cl)cc3)n(C[C@H](O)C(F)(F)F)c2=O)nn1-c1ncccc1Br` [Example 16, 1-(3-Bromopyridin-2-yl)-3-({3-(4-chlorophenyl)-5-oxo-4-[(2S)-3,3,3-trifluoro-2-hydroxypropyl]-4,5-dihydro-1H-1,2,4-triazol-1-yl}methyl)-N-(2,2,2-trifluoroethyl)-1H-1,2,4-triazole-5-carboxamide], the IC50 came to 40.7 nM in test [1] and 1.23 nM in test [2]. Also, the “ratio IC50 hV2/hV1a” value in test [2] came to 33.1.
